Assay results reported in ChEMBL document CHEMBL1140770, “Chemo-, regio-, and stereoselectivity of F-ring opening reactions in the cephalostatin series” (2008).

Key:
Type in all cases: functional
Conditions in all cases: for CC50: read-out: LC50 (the source's name)
HepG2 = experiment: Cytostatic activity against human HepG2 cells by SRB assay
[1] = Cytostatic activity against human HM02 cells by SRB assay
MCF7 = experiment: Cytostatic activity against human MCF7 cells by SRB assay

Compound | GI50 (HepG2) [µM] | TGI (HepG2) [µM] | CC50 (HepG2) [µM] | GI50 [1] [µM] | TGI [1] [µM] | CC50 [1] [µM] | GI50 (MCF7) [µM] | TGI (MCF7) [µM] | CC50 (MCF7) [µM]
C[C@H]1CC[C@@]2(OC1)O[C@H]1C=C3[C@@H]4CC[C@H]5Cc6nc7c(nc6C[C@]5(C)[C@H]4C[C@@H](O)[C@]3(C)[C@H]1[C@@H]2C)C[C@@H]1CC[C@H]2C3=C[C@@H]4O[C@]5(CC[C@H](C)CO5)[C@@H](C)[C@@H]4[C@@]3(C)[C@H](O)C[C@@H]2[C@@]1(C)C7 | 0.65 | 5 | > 10 | 2.6 | 7 | > 10 | 5.2 | > 10 | > 10
C[C@H]1CC[C@@]2(OC1)O[C@H]1C=C3[C@@H]4CC[C@H]5Cc6nc7c(nc6C[C@]5(C)[C@H]4CC(=O)[C@]3(C)[C@H]1[C@@H]2C)C[C@@H]1CC[C@H]2C3=C[C@@H]4O[C@]5(CC[C@H](C)CO5)[C@@H](C)[C@@H]4[C@@]3(C)[C@H](O)C[C@@H]2[C@@]1(C)C7 | > 10 | > 10 | > 10 | 3 | > 10 | > 10 | > 10 | > 10 | > 10
C[C@H]1CC[C@@]2(OC1)O[C@H]1C=C3[C@@H]4CC[C@H]5Cc6nc7c(nc6C[C@]5(C)[C@H]4C[C@@H](O)[C@]3(C)[C@H]1[C@@H]2C)C[C@@H]1CC[C@H]2C3=C[C@@H]4O[C@]5(CC[C@H](C)CO5)[C@@H](C)[C@@H]4[C@@]3(C)C3(C[C@@H]2[C@@]1(C)C7)OCCO3 | 0.07 | 1.7 | > 10 | 2.8 | > 10 | > 10 | 0.1 | > 10 | > 10
C[C@H](CO)CC[C@H]1O[C@H]2C=C3[C@@H]4CC[C@H]5Cc6nc7c(nc6C[C@]5(C)[C@H]4C[C@@H](O)[C@]3(C)[C@H]2[C@@H]1C)C[C@@H]1CC[C@H]2C3=C[C@@H]4O[C@H](CC[C@H](C)CO)[C@@H](C)[C@@H]4[C@@]3(C)C3(C[C@@H]2[C@@]1(C)C7)OCCO3 | 1 | > 10 | > 10 | 0.63 | 1 | > 10 | 8.2 | > 10 | > 10
C[C@H]1CC[C@@]2(OC1)O[C@H]1C=C3[C@@H]4CC[C@H]5Cc6nc7c(nc6C[C@]5(C)[C@H]4CC(=O)[C@]3(C)[C@H]1[C@@H]2C)C[C@@H]1CC[C@H]2C3=C[C@@H]4O[C@]5(CC[C@H](C)CO5)[C@@H](C)[C@@H]4[C@@]3(C)C(=O)C[C@@H]2[C@@]1(C)C7 | 4.6 | > 10 | > 10 | 5.5 | 7 | > 10 | > 10 | > 10 | > 10
C=C1C[C@H]2[C@@H](CC[C@H]3Cc4nc5c(nc4C[C@@]32C)C[C@@H]2CC[C@H]3C4=C[C@@H]6O[C@]7(CC[C@H](C)CO7)[C@@H](C)[C@@H]6[C@@]4(C)C(=O)C[C@@H]3[C@@]2(C)C5)C2=C[C@@H]3O[C@]4(CC[C@H](C)CO4)[C@@H](C)[C@@H]3[C@@]12C | > 10 | > 10 | > 10 | > 10 | > 10 | > 10 | > 10 | > 10 | > 10
C[C@H]1CC[C@@]2(OC1)O[C@H]1C=C3[C@@H]4CC[C@H]5Cc6nc7c(nc6C[C@]5(C)[C@H]4C[C@@H](O)[C@]3(C)[C@H]1[C@@H]2C)C[C@@H]1CC[C@H]2C3=C[C@@H]4O[C@]5(CC[C@H](C)CO5)[C@@H](C)[C@@H]4[C@@]3(C)C(CO)C[C@@H]2[C@@]1(C)C7 (stereo partly specified) | 6.9 | 10 | > 10 | 2.3 | > 10 | > 10 | 0.1 | > 10 | > 10
C=C1C[C@H]2[C@@H](CC[C@H]3Cc4nc5c(nc4C[C@@]32C)C[C@@H]2CC[C@H]3C4=C[C@@H]6O[C@H](CC[C@H](C)CO)[C@@H](C)[C@@H]6[C@@]4(C)[C@H](O)C[C@@H]3[C@@]2(C)C5)C2=C[C@@H]3O[C@H](CC[C@H](C)CO)[C@@H](C)[C@@H]3[C@@]12C | 1 | > 10 | > 10 | 1.7 | 5.8 | 9.5 | 5 | > 10 | > 10
C[C@H](CO)CC[C@H]1O[C@H]2C=C3[C@@H]4CC[C@H]5Cc6nc7c(nc6C[C@]5(C)[C@H]4CC4(OCCO4)[C@]3(C)[C@H]2[C@@H]1C)C[C@@H]1CC[C@H]2C3=C[C@@H]4O[C@]5(CC[C@H](C)CO5)[C@@H](C)[C@@H]4[C@@]3(C)[C@H](O)C[C@@H]2[C@@]1(C)C7 | 10 | > 10 | > 10 | 0.95 | 3.1 | > 10 | 2.5 | 10 | > 10
